Test results reported in US20140005153A1, “Off-Note Masking” (GIVAUDAN S. A., priority 2011, published 2014).

Tests used:
[1] = sweetness enhancement detection level; conditions: in vivo
Description: (§1) There is also provided an orally-receivable or -ingestible composition comprising an off-note-masking proportion of 1-(2-hydroxyphenyl)-3-(pyridin-4-yl)propane-1-one or a salt thereof 1-(2-hydroxyphenyl)-3-(pyridin-4-yl)propane-1-one (hereinafter referred to as “Compound 1”) is disclosed in United States published application No. 2010/272656. In this publication, the compound is described as an effective sweetness enhancer. It is a surprising feature of this disclosure that the same compound can deliver an off-note- or off-taste-masking effect at a concentration far below the concentration at which it is perceived as sweet. The minimum level at which the sweetness enhancement effect of Compound 1 can be detected is 35 ppm, but the off-note- or off-taste-masking effect of the masker can be as low as 2.5 ppm. A practical maximum for off-note masking is 10 ppm.

[2] = off-note / off-taste masking, lowest effective level; conditions: in vivo
Description: as §1

[3] = blind bench-top tasting panel, soy yogurt; assay type: in vivo
Description: (§2) The following compositions are made and tested blind. Using a blind bench-top tasting panel (consisting of 4 to 8 panelists), panelists were asked to record the sensory attribute differences between the control and example samples, specifically focusing on off-notes (reduction or differences).
Soy Yogurt (O'Soy Organic Soy Yogurt Strawberry Flavor—5 g Protein Per 4 oz Serving)

[4] = blind bench-top tasting panel, fortified mayonnaise; assay type: in vivo
Method: as §2
Fortified Mayonnaise (Smart Balance Omega Plus Light Mayonnaise Dressing—Omega-3 (500 Mg Per 15 g Serving) and Plant Sterols (100 Mg Per 15 g Serving)

[5] = blind bench-top tasting panel, OTC syrup; assay type: in vivo
Method: as §2, with “differences). Over-the-Counter (OTC) Syrup (Kroger Daytime Cold/Flu Relief (Acetaminophen 325 mg per 15 mL; Dextromethorphan HBr 10 mg per 15 mL; Phenylephrine HCl 5 mg per 15 mL))” for “differences).”

[6] = blind bench-top tasting panel, proteinaceous supplement; assay type: in vivo
Description: as §2
Proteinaceous Supplement (GNC Pro Performance 100% Whey Protein)

[7] = blind bench-top tasting panel, cocoa; assay type: in vivo
Description: as §2
Cocoa (Dilute 10% in Water to Consume) (Kroger Cocoa Unsweetened)

[8] = 0.002% by weight in cocoa (unsweetened)
[9] = 0.0015% by weight in whey protein supplement

Row | Compound | minimum level at which the sweetness enhancement effect can be detected [1] | off-note- or off-taste-masking effect can be as low as [2] | panelist preference over the control ([3]; 0.002% by weight in soy yogurt) | panelist preference over the control ([4]; 0.00025% by weight in fortified mayonnaise) | panelist preference over the control ([5]; 0.003% by weight in OTC syrup) | panelist preference over the control ([6]; 0.003% by weight in whey protein supplement) | panelist preference over the control [7, 8] | panelist preference over the control ([4]; 0.0005% by weight in fortified mayonnaise) | panelist preference over the control [6, 9] | panelist preference over the control ([3]; 0.001% by weight in soy yogurt) | panelist preference over the control ([4]; 0.001% by weight in fortified mayonnaise) | panelist preference over the control ([5]; 0.002% by weight in OTC syrup) | panelist preference over the control ([7]; 0.001% by weight in cocoa (unsweetened))
1 | O=C(CCc1ccncc1)c1ccccc1O [Compound 1, 1-(2-hydroxyphenyl)-3-(pyridin-4-yl)propane-1-one] | 35 ppm | 2.5 ppm | preferred | preferred | preferred | preferred | preferred |  |  |  |  |  | 
2 | CC1CCC(CCCC(=O)O)C1(C)C (centres unmarked) [Compound 2, 4-[2,2,3-trimethyl-cyclopentyl]-butanoic acid] |  |  | preferred |  | preferred |  | preferred | preferred | preferred |  |  |  | 
3 | CCc1c(C)c2ccc(OC(C)C(=O)O)c(C)c2oc1=O (centres unmarked) [Compound 3, 2-[(3-ethyl-4,8-dimethyl-2-oxo-2H-chromen-7-yl)oxy]propanoic acid] |  |  |  |  |  |  |  |  | preferred | preferred | preferred | preferred | preferred
